{
  "source": "ChEMBL document CHEMBL1208771",
  "about": "“Improvement of both plasmepsin inhibitory activity and antimalarial activity by 2-aminoethylamino substitution” (Bioorg Med Chem Lett, 2010)",
  "key": {"Plasmepsin II": {"target": "Plasmepsin II (Plasmodium falciparum, UniProt P46925)", "sequence (P46925 whole entry)": "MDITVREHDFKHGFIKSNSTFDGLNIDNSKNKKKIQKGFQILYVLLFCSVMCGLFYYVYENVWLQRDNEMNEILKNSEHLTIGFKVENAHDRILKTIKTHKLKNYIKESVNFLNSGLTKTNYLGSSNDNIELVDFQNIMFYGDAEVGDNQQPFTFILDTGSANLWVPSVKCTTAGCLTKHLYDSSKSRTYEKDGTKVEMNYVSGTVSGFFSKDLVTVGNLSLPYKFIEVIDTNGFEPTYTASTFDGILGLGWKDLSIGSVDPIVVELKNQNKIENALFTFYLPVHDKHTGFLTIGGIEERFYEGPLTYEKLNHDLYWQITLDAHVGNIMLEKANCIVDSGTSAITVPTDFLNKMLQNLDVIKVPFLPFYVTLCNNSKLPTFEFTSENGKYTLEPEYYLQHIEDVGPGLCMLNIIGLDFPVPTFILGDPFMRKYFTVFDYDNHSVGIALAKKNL", "assay": "Inhibition of Plasmodium falciparum plasmepsin-2"}, "Plasmodium falciparum [1]": {"test_system": "Plasmodium falciparum", "assay": "Antiplasmodial activity against Plasmodium falciparum D6 infected in human erythrocytes by SYBR green I fluorescence assay", "type": "functional, organism-based"}, "Plasmodium falciparum [2]": {"test_system": "Plasmodium falciparum", "assay": "Ratio of compound EC50 to chloroquine EC50 for Plasmodium falciparum D6 infected in human erythrocytes", "type": "functional"}},
  "data": [
    {"compound": "Cc1cc(N(C)CCN(C)C)cc(C)c1OCC(=O)N[C@@H](Cc1ccccc1)[C@H](O)C(=O)N1CSC(C)(C)[C@H]1C(=O)N[C@H]1c2ccccc2C[C@H]1O", "values": [
      {"measurement": "Ki", "setting": "Plasmepsin II", "result": "< 0.1", "unit": "nM"},
      {"measurement": "EC50", "setting": "Plasmodium falciparum [1]", "result": 360, "unit": "nM"}
    ]},
    {"compound": "Cc1cc(NCCN)cc(C)c1OCC(=O)N[C@@H](Cc1ccccc1)[C@H](O)C(=O)N1CSC(C)(C)[C@H]1C(=O)N[C@H]1c2ccccc2C[C@H]1O", "values": [
      {"measurement": "Ki", "setting": "Plasmepsin II", "result": 6.5, "unit": "nM"},
      {"measurement": "EC50", "setting": "Plasmodium falciparum [1]", "result": 290, "unit": "nM"}
    ]},
    {"compound": "CNCCNc1cc(C)c(OCC(=O)N[C@@H](Cc2ccccc2)[C@H](O)C(=O)N2CSC(C)(C)[C@H]2C(=O)N[C@H]2c3ccccc3C[C@H]2O)c(C)c1", "values": [
      {"measurement": "Ki", "setting": "Plasmepsin II", "result": 9.1, "unit": "nM"},
      {"measurement": "EC50", "setting": "Plasmodium falciparum [1]", "result": 1400, "unit": "nM"}
    ]},
    {"compound": "Cc1cc(NCCN(C)C)cc(C)c1OCC(=O)N[C@@H](Cc1ccccc1)[C@H](O)C(=O)N1CSC(C)(C)[C@H]1C(=O)N[C@H]1c2ccccc2C[C@H]1O", "values": [
      {"measurement": "Ki", "setting": "Plasmepsin II", "result": 17, "unit": "nM"},
      {"measurement": "EC50", "setting": "Plasmodium falciparum [1]", "result": 2000, "unit": "nM"}
    ]},
    {"compound": "Cc1cc(N(C)CCN)cc(C)c1OCC(=O)N[C@@H](Cc1ccccc1)[C@H](O)C(=O)N1CSC(C)(C)[C@H]1C(=O)N[C@H]1c2ccccc2C[C@H]1O", "values": [
      {"measurement": "Ki", "setting": "Plasmepsin II", "result": 8.5, "unit": "nM"},
      {"measurement": "EC50", "setting": "Plasmodium falciparum [1]", "result": 1400, "unit": "nM"}
    ]},
    {"compound": "CNCCN(C)c1cc(C)c(OCC(=O)N[C@@H](Cc2ccccc2)[C@H](O)C(=O)N2CSC(C)(C)[C@H]2C(=O)N[C@H]2c3ccccc3C[C@H]2O)c(C)c1", "values": [
      {"measurement": "Ki", "setting": "Plasmepsin II", "result": 1.2, "unit": "nM"},
      {"measurement": "EC50", "setting": "Plasmodium falciparum [1]", "result": 190, "unit": "nM"},
      {"measurement": "Ratio EC50", "setting": "Plasmodium falciparum [2]", "result": 10}
    ]},
    {"compound": "CCNCCNc1cc(C)c(OCC(=O)N[C@@H](Cc2ccccc2)[C@H](O)C(=O)N2CSC(C)(C)[C@H]2C(=O)N[C@H]2c3ccccc3C[C@H]2O)c(C)c1", "values": [
      {"measurement": "Ki", "setting": "Plasmepsin II", "result": 0.68, "unit": "nM"},
      {"measurement": "EC50", "setting": "Plasmodium falciparum [1]", "result": 220, "unit": "nM"}
    ]},
    {"compound": "CCN(CC)CCNc1cc(C)c(OCC(=O)N[C@@H](Cc2ccccc2)[C@H](O)C(=O)N2CSC(C)(C)[C@H]2C(=O)N[C@H]2c3ccccc3C[C@H]2O)c(C)c1", "values": [
      {"measurement": "Ki", "setting": "Plasmepsin II", "result": 5.1, "unit": "nM"},
      {"measurement": "EC50", "setting": "Plasmodium falciparum [1]", "result": 1600, "unit": "nM"}
    ]},
    {"compound": "CCN(CCN)c1cc(C)c(OCC(=O)N[C@@H](Cc2ccccc2)[C@H](O)C(=O)N2CSC(C)(C)[C@H]2C(=O)N[C@H]2c3ccccc3C[C@H]2O)c(C)c1", "values": [
      {"measurement": "Ki", "setting": "Plasmepsin II", "result": "< 0.1", "unit": "nM"},
      {"measurement": "EC50", "setting": "Plasmodium falciparum [1]", "result": 460, "unit": "nM"}
    ]},
    {"compound": "CCNCCN(CC)c1cc(C)c(OCC(=O)N[C@@H](Cc2ccccc2)[C@H](O)C(=O)N2CSC(C)(C)[C@H]2C(=O)N[C@H]2c3ccccc3C[C@H]2O)c(C)c1", "values": [
      {"measurement": "Ki", "setting": "Plasmepsin II", "result": 4.2, "unit": "nM"},
      {"measurement": "EC50", "setting": "Plasmodium falciparum [1]", "result": 790, "unit": "nM"}
    ]},
    {"compound": "CCN(CC)CCN(CC)c1cc(C)c(OCC(=O)N[C@@H](Cc2ccccc2)[C@H](O)C(=O)N2CSC(C)(C)[C@H]2C(=O)N[C@H]2c3ccccc3C[C@H]2O)c(C)c1", "values": [
      {"measurement": "Ki", "setting": "Plasmepsin II", "result": 10, "unit": "nM"},
      {"measurement": "EC50", "setting": "Plasmodium falciparum [1]", "result": 1100, "unit": "nM"}
    ]},
    {"compound": "Cc1cccc(C)c1OCC(=O)N[C@@H](Cc1ccccc1)[C@H](O)C(=O)N1CSC(C)(C)[C@H]1C(=O)N[C@H]1c2ccccc2C[C@H]1O", "values": [
      {"measurement": "EC50", "setting": "Plasmodium falciparum [1]", "result": 5000, "unit": "nM"}
    ]},
    {"compound": "Cc1cc(NCc2ccccn2)cc(C)c1OCC(=O)N[C@@H](Cc1ccccc1)[C@H](O)C(=O)N1CSC(C)(C)[C@H]1C(=O)N[C@H]1c2ccccc2C[C@H]1O", "values": [
      {"measurement": "EC50", "setting": "Plasmodium falciparum [1]", "result": 560, "unit": "nM"}
    ]},
    {"compound": "CCN(CC)CCCC(C)Nc1ccnc2cc(Cl)ccc12", "note": "(stereo unspecified) [CHLOROQUINE]", "values": [
      {"measurement": "EC50", "setting": "Plasmodium falciparum [1]", "result": 20, "unit": "nM"}
    ]}
  ]
}
